Values after ≈ are worked out from the molar mass of the structure shown. Active and inactive are the calls of the source. No cut-off for these calls is given here.
What was measured:
Candida albicans [1] = assay: Antimicrobial activity against Candida albicans MTCC 183 by agar streak dilution method; assay type: functional
Aspergillus clavatus [2] = assay: Antimicrobial activity against Aspergillus clavatus MTCC 1323 by paper disk diffusion method; assay type: functional
Aspergillus niger [3] = assay: Antimicrobial activity against Aspergillus niger MTCC 282 by paper-disk diffusion method; assay type: functional
Aspergillus fumigatus [4] = assay: Antimicrobial activity against Aspergillus fumigatus MTCC 343 by paper-disk diffusion method; assay type: functional
Pseudomonas aeruginosa [5] = assay: Antimicrobial activity against Pseudomonas aeruginosa MTCC 741 at 100 ug/ml by paper disk diffusion method; assay type: functional, organism-based
Shigella flexneri [6] = assay: Antimicrobial activity against Shigella flexneri MTCC 1457 by paper disk diffusion method; assay type: functional
Proteus vulgaris [7] = assay: Antimicrobial activity against Proteus vulgaris MTCC 1771 by paper disk diffusion method; assay type: functional
Salmonella typhi [8] = assay: Antimicrobial activity against Salmonella enterica subsp. enterica serovar Typhi MTCC 733 by paper disk diffusion method; assay type: functional
Klebsiella pneumoniae [9] = assay: Antimicrobial activity against Klebsiella pneumoniae MTCC 109 by paper disk diffusion method; assay type: functional
Pseudomonas aeruginosa [10] = assay: Antimicrobial activity against Pseudomonas aeruginosa MTCC 741 by paper disk diffusion method; assay type: functional
Bacillus cereus [11] = assay: Antimicrobial activity against Bacillus cereus MTCC 619 by paper disk diffusion method; assay type: functional
Escherichia coli [12] = assay: Antimicrobial activity against Escherichia coli MTCC 739 by paper disk diffusion method; assay type: functional
Staphylococcus aureus [13] = assay: Antimicrobial activity against Staphylococcus aureus MTCC 96 by paper-disk diffusion method; assay type: functional
Aspergillus clavatus [14] = assay: Antimicrobial activity against Aspergillus clavatus MTCC 1323 by agar streak dilution method; assay type: functional
Aspergillus fumigatus [15] = assay: Antimicrobial activity against Aspergillus fumigatus MTCC 343 by agar streak dilution method; assay type: functional
Aspergillus niger [16] = assay: Antimicrobial activity against Aspergillus niger MTCC 282 by agar streak dilution method; assay type: functional
Proteus vulgaris [17] = assay: Antimicrobial activity against Proteus vulgaris MTCC 1771 by agar streak dilution method; assay type: functional
Shigella flexneri [18] = assay: Antimicrobial activity against Shigella flexneri MTCC 1457 by agar streak dilution method; assay type: functional
Klebsiella pneumoniae [19] = assay: Antimicrobial activity against Klebsiella pneumoniae MTCC 109 by agar streak dilution method; assay type: functional
Salmonella typhi [20] = assay: Antimicrobial activity against Salmonella enterica subsp. enterica serovar Typhi MTCC 733 by agar streak dilution method; assay type: functional
Pseudomonas aeruginosa [21] = assay: Antimicrobial activity against Pseudomonas aeruginosa MTCC 741 by agar streak dilution method; assay type: functional
Staphylococcus aureus [22] = assay: Antimicrobial activity against Staphylococcus aureus MTCC 96 by agar streak dilution method; assay type: functional
Bacillus cereus [23] = assay: Antimicrobial activity against Bacillus cereus MTCC 619 by agar streak dilution method; assay type: functional
[24] = system: Mycobacterium tuberculosis; assay: Antimicrobial activity against Mycobacterium tuberculosis H37Rv at 100 ug/ml by BACTEC MGIT method; assay type: functional, organism-based
Escherichia coli [25] = assay: Antimicrobial activity against Escherichia coli MTCC 739 by agar streak dilution method; assay type: functional
[26] = system: Mycobacterium tuberculosis; assay: Antimicrobial activity against Mycobacterium tuberculosis H37Rv by Lowenstein and Jensen method; assay type: functional; conditions: for MIC: Mycobacterium tuberculosis, H37Rv
[27] = system: Mycobacterium tuberculosis; assay: Antimicrobial activity against Mycobacterium tuberculosis H37Rv by BACTEC MGIT method; assay type: functional; conditions: Mycobacterium tuberculosis, H37Rv
Candida albicans [28] = assay: Antimicrobial activity against Candida albicans MTCC 183 by paper-disk diffusion method; assay type: functional

| SMILES | MIC (Candida albicans [1]) [µg/mL] | inhibition zone (IZ) (Aspergillus clavatus [2]) [mm] | inhibition zone (IZ) (Aspergillus niger [3]) [mm] | inhibition zone (IZ) (Aspergillus fumigatus [4]) [mm] | inhibition zone (IZ) (Pseudomonas aeruginosa [5]) | inhibition zone (IZ) (Shigella flexneri [6]) [mm] | inhibition zone (IZ) (Proteus vulgaris [7]) [mm] | inhibition zone (IZ) (Salmonella typhi [8]) [mm] | inhibition zone (IZ) (Klebsiella pneumoniae [9]) [mm] | inhibition zone (IZ) (Pseudomonas aeruginosa [10]) [mm] | inhibition zone (IZ) (Bacillus cereus [11]) [mm] | inhibition zone (IZ) (Escherichia coli [12]) [mm] | inhibition zone (IZ) (Staphylococcus aureus [13]) [mm] | MIC (Aspergillus clavatus [14]) [µg/mL] | MIC (Aspergillus fumigatus [15]) [µg/mL] | MIC (Aspergillus niger [16]) [µg/mL] | MIC (Proteus vulgaris [17]) [µg/mL] | MIC (Shigella flexneri [18]) [µg/mL] | MIC (Klebsiella pneumoniae [19]) [µg/mL] | MIC (Salmonella typhi [20]) [µg/mL] | other results |
| --- | --- | --- | --- | --- | --- | --- | --- | --- | --- | --- | --- | --- | --- | --- | --- | --- | --- | --- | --- | --- | --- |
| N#Cc1ccc(Nc2nc(Oc3ncnc4ccccc34)nc(N3CCN(c4ccccc4Cl)CC3)n2)cc1C(F)(F)F | 12.5 (≈ 20.7 µM) | 22 | 22 | 24 | inactive | 27 | 24 | 26 | 23 | 24 | 24 | 22 | 26 | 50 (≈ 82.8 µM) | 12.5 (≈ 20.7 µM) | 50 (≈ 82.8 µM) | 25 (≈ 41.4 µM) | 12.5 (≈ 20.7 µM) | 100 (≈ 166 µM) | 6.25 (≈ 10.3 µM) | MIC (Pseudomonas aeruginosa [21]): 25 µg/mL (≈ 41.4 µM); MIC (Staphylococcus aureus [22]): 12.5 µg/mL (≈ 20.7 µM); MIC (Bacillus cereus [23]): 50 µg/mL (≈ 82.8 µM); inhibition [24]: inactive; MIC (Escherichia coli [25]): 100 µg/mL (≈ 166 µM); inhibition (percent inhibition) [26]: 97%; MIC [26]: 25 µg/mL (≈ 41.4 µM); MIC [27]: > 6.25 µg/mL; inhibition zone (IZ) (Candida albicans [28]): 25 mm |
| N#Cc1ccc(Nc2nc(Oc3ncnc4ccccc34)nc(N3CCN(c4ccccc4F)CC3)n2)cc1C(F)(F)F | 12.5 (≈ 21.3 µM) | 24 | 26 | 22 | inactive | 25 | 23 | 26 | 24 | 25 | 26 | 24 | 27 | 25 (≈ 42.6 µM) | 25 (≈ 42.6 µM) | 3.12 (≈ 5.31 µM) | 25 (≈ 42.6 µM) | 25 (≈ 42.6 µM) | 25 (≈ 42.6 µM) | 12.5 (≈ 21.3 µM) | MIC (Pseudomonas aeruginosa [21]): 25 µg/mL (≈ 42.6 µM); MIC (Staphylococcus aureus [22]): 6.25 µg/mL (≈ 10.6 µM); MIC (Bacillus cereus [23]): 6.25 µg/mL (≈ 10.6 µM); inhibition [24]: inactive; MIC (Escherichia coli [25]): 50 µg/mL (≈ 85.1 µM); inhibition (percent inhibition) [26]: 98%; MIC [26]: 12.5 µg/mL (≈ 21.3 µM); MIC [27]: > 6.25 µg/mL; inhibition zone (IZ) (Candida albicans [28]): 26 mm |
| CC(=O)N1CCN(c2nc(Nc3ccc(C#N)c(C(F)(F)F)c3)nc(Oc3ncnc4ccccc34)n2)CC1 | 50 (≈ 93.4 µM) | 24 | 24 | 24 | inactive | 22 | 25 | 24 | 25 | 27 | 26 | 28 | 27 | 12.5 (≈ 23.3 µM) | 25 (≈ 46.7 µM) | 25 (≈ 46.7 µM) | 12.5 (≈ 23.3 µM) | 100 (≈ 187 µM) | 12.5 (≈ 23.3 µM) | 25 (≈ 46.7 µM) | MIC (Pseudomonas aeruginosa [21]): 12.5 µg/mL (≈ 23.3 µM); MIC (Staphylococcus aureus [22]): 12.5 µg/mL (≈ 23.3 µM); MIC (Bacillus cereus [23]): 6.25 µg/mL (≈ 11.7 µM); inhibition [24]: inactive; MIC (Escherichia coli [25]): 6.25 µg/mL (≈ 11.7 µM); inhibition (percent inhibition) [26]: 96%; MIC [26]: 12.5 µg/mL (≈ 23.3 µM); MIC [27]: > 6.25 µg/mL; inhibition zone (IZ) (Candida albicans [28]): 24 mm |

— ChEMBL document CHEMBL3044572, “Discovery of 2-(4-cyano-3-trifluoromethylphenyl amino)-4-(4-quinazolinyloxy)-6-piperazinyl(piperidinyl)-s-triazines as potential antibacterial agents” (2012)
